Experimental data reported in patent US20250145665A1, “MACROCYCLIC PEPTIDES USEFUL AS MODULATORS OF TNF ALPHA” (Bristol-Myers Squibb Company, priority 2023, published 2025).
Starred links: 1 amine or outer side, 2 acyl side, 3 side chain; linkers in the order of their positions; H or OH if unused. Positions of bridges follow the written chain, without caps; N, C: chain ends. Non-standard residues stand in square brackets, D forms with d. Residues, ends and D or L forms follow the SMILES beside them. *: point of attachment. Bip(4'-(3-HOOC-benzamido)) = N[C@@H](Cc1ccc(-c2ccc(NC(=O)c3cccc(C(=O)O)c3)cc2)cc1)C(=O)O; X10 = Cn1cc(C(=O)Nc2ccc(-c3ccc(C[C@H](N[*:1])C(=O)[*:2])cc3)cc2)c2ccccc21; X74 = Cn1nc(C(=O)Nc2ccc(-c3ccc(C[C@H](N[*:1])C(=O)[*:2])cc3)cc2)c2cccnc21; Bip(4'-NHBz) = N[C@@H](Cc1ccc(-c2ccc(NC(=O)c3ccccc3)cc2)cc1)C(=O)O; Bip(4'-NH) = O=C([C@H](Cc1ccc(-c2ccc(N[*:3])cc2)cc1)N[*:1])[*:2]; Bip(4'-COOH) = N[C@@H](Cc1ccc(-c2ccc(C(=O)O)cc2)cc1)C(=O)O; Ala(morpholin-4-yl) = N[C@@H](CN1CCOCC1)C(=O)O; Benzoyl(3-OCH2COOH) = O=C(O)COc1cccc(C(=O)*)c1; Benzoyl(3-Ph) = O=C(c1cccc(-c2ccccc2)c1)*; Bip = N[C@@H](Cc1ccc(-c2ccccc2)cc1)C(=O)O; Cha = N[C@@H](CC1CCCCC1)C(=O)O; Tle = CC(C)(C)[C@H](N)C(=O)O; Sar = CNCC(=O)O

Each molecule was assayed against TNFα (Homo sapiens, UniProt P01375) (assay: TNF-Induced HEK-Blue Assay). Settings: not given.
Format: cell-based

Sequence of TNFα (P01375 77-233 limits assumed): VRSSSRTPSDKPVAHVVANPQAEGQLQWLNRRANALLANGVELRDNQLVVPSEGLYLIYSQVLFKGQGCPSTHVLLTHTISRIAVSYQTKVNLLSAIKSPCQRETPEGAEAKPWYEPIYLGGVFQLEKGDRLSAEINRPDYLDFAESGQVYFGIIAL

SMILES | IC50 [nM]
CC[C@H](C)[C@@H]1NC(=O)[C@@H]2CCCN2C(=O)[C@H]([C@@H](C)CC)NC(=O)[C@@H](CCCNC(=N)N)NC(=O)[C@H](CC(=O)O)NC(=O)[C@H](Cc2ccccc2)NC(=O)CN(C)C(=O)[C@H](Cc2ccc(-c3ccc(NC(=O)c4ccccc4)cc3)cc2)NC(=O)[C@H](Cc2ccc(-c3ccc(C(=O)O)cc3)cc2)NC(=O)[C@H](C(C)(C)C)NC(=O)CSC[C@@H](C(=O)NCC(N)=O)NC(=O)[C@H](CC(C)C)NC(=O)[C@H](Cc2cnc[nH]2)NC1=O [Example 350] ({CH2CO}-[Tle][Bip(4'-COOH)][Bip(4'-NHBz)][Sar]FD[dR]IPIHLCG-NH2; thioether N-13) | < 50

Same assay, conditions: HEK-Blue-CD40L cells, NF-kB-driven secreted alkaline phosphatase reporter; TNFα 0.5 ng/ml; 18 h; read-out: TNF induced HEK-Blue assay IC50 value

SMILES | IC50 [nM]
CC(C)C[C@@H]1NC(=O)[C@H](CCCNC(=N)N)NC(=O)[C@H](C(C)C)NC(=O)[C@@H]2CCCN2C(=O)[C@H](C(C)C)NC(=O)[C@@H](CCCNC(=N)N)NC(=O)[C@H](CC(=O)O)NC(=O)[C@@H]2CCCN2C(=O)CN(C)C(=O)[C@H](Cc2ccc(-c3ccc(NC(=O)c4nn(C)c5ncccc45)cc3)cc2)NC(=O)[C@H](Cc2ccc(-c3ccccc3)cc2)NC(=O)[C@H](CN2CCOCC2)NC(=O)CSC[C@@H](C(=O)NCC(N)=O)NC1=O [Example 347] ({CH2CO}-[Ala(morpholin-4-yl)][Bip][X74][Sar]PD[dR]VPVRLCG-NH2; thioether N-13) | < 50
CC(C)C[C@@H]1NC(=O)[C@H](CCCNC(=N)N)NC(=O)[C@H](C(C)C)NC(=O)[C@@H]2CCCN2C(=O)[C@H](C(C)C)NC(=O)[C@@H](CCCNC(=N)N)NC(=O)[C@H](CC(=O)O)NC(=O)[C@@H]2CCCN2C(=O)CN(C)C(=O)[C@H](Cc2ccc(-c3ccc(NC(=O)c4cn(C)c5ccccc45)cc3)cc2)NC(=O)[C@H](Cc2ccc(-c3ccccc3)cc2)NC(=O)[C@H](CN2CCOCC2)NC(=O)CSC[C@@H](C(=O)NCC(N)=O)NC1=O [Example 348] ({CH2CO}-[Ala(morpholin-4-yl)][Bip][X10][Sar]PD[dR]VPVRLCG-NH2; thioether N-13) | 50 to 200
CC[C@H](C)[C@@H]1NC(=O)[C@@H](CCCNC(=N)N)NC(=O)[C@H](CC(=O)O)NC(=O)[C@H](Cc2cnc[nH]2)NC(=O)CN(C)C(=O)[C@H](Cc2ccc(-c3ccc(NC(=O)c4cccc(-c5ccccc5)c4)cc3)cc2)NC(=O)[C@H](Cc2ccc(-c3ccccc3)cc2)NC(=O)[C@H](CC2CCCCC2)NC(=O)CSC[C@@H](C(=O)NCC(N)=O)NC(=O)[C@H](CC(C)C)NC(=O)[C@H](Cc2cnc[nH]2)NC(=O)[C@H](C(C)C)NC(=O)[C@@H]2CCCN2C1=O [Example 349] ({CH2CO}-[Cha][Bip][Bip(4'-NH)](Benzoyl(3-Ph))[Sar]HD[dR]IPVHLCG-NH2; thioether N-13) | 200 to 2000
CC[C@H](C)[C@@H]1NC(=O)[C@@H]2CCCN2C(=O)[C@H]([C@@H](C)CC)NC(=O)[C@@H](CCCNC(=N)N)NC(=O)[C@H](CC(=O)O)NC(=O)[C@H](Cc2ccccc2)NC(=O)CN(C)C(=O)[C@H](Cc2ccc(-c3ccc(NC(=O)c4cccc(C(=O)O)c4)cc3)cc2)NC(=O)[C@H](Cc2ccc(-c3ccc(C(=O)O)cc3)cc2)NC(=O)[C@H](C(C)(C)C)NC(=O)CSC[C@@H](C(=O)NCC(N)=O)NC(=O)[C@H](CC(C)C)NC(=O)[C@H](Cc2cnc[nH]2)NC1=O [Example 351] ({CH2CO}-[Tle][Bip(4'-COOH)][Bip(4'-(3-HOOC-benzamido))][Sar]FD[dR]IPIHLCG-NH2; thioether N-13) | < 50
CC[C@H](C)[C@@H]1NC(=O)[C@@H]2CCCN2C(=O)[C@H]([C@@H](C)CC)NC(=O)[C@@H](CCCNC(=N)N)NC(=O)[C@H](CC(=O)O)NC(=O)[C@H](Cc2ccccc2)NC(=O)CN(C)C(=O)[C@H](Cc2ccc(-c3ccc(NC(=O)c4cccc(OCC(=O)O)c4)cc3)cc2)NC(=O)[C@H](Cc2ccc(-c3ccc(C(=O)O)cc3)cc2)NC(=O)[C@H](C(C)(C)C)NC(=O)CSC[C@@H](C(=O)NCC(N)=O)NC(=O)[C@H](CC(C)C)NC(=O)[C@H](Cc2cnc[nH]2)NC1=O [Example 352] ({CH2CO}-[Tle][Bip(4'-COOH)][Bip(4'-NH)](Benzoyl(3-OCH2COOH))[Sar]FD[dR]IPIHLCG-NH2; thioether N-13) | < 50
